Reference: PubChem BioAssay AID2060884 (Molecular Pharmacology Branch, DTP, NCI, 2025)
Blank lines part the entries; values can stand above or below the compound they belong to.

System: NCI-H929 complex spheroids, viability % test/control
Assay: Anticancer human tumor NCI-H929 cell line growth inhibition [RAS];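 note: compound exposure lasted seven days before viability was read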;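 for viability, T/C: 100% = DMSO vehicle control viability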
Details: for IC50: curve of first compound; for viability, T/C: stronger effect = lower value
Outline: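 Tumour cells grown as complex spheroids with HUVEC endothelial cells and mesenchymal stem cells, treated with RAS pathway inhibitor combinations. Each agent spans half-log steps from near clinical Cmax, or 10 microM where Cmax is unknown.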

[1] = second compound 0.000949 µM, first compound 0.0316 µM
[2] = second compound 0.000949 µM, first compound 0.1 µM
[3] = second compound 0.000949 µM, first compound 0.316 µM
[4] = second compound 0.000949 µM, first compound 1 µM
[5] = second compound 0.003 µM, first compound 0.0316 µM
[6] = second compound 0.003 µM, first compound 0.1 µM
[7] = second compound 0.003 µM, first compound 0.316 µM
[8] = second compound 0.003 µM, first compound 1 µM
[9] = second compound 0.00949 µM, first compound 0.0316 µM
[10] = second compound 0.00949 µM, first compound 0.1 µM
[11] = second compound 0.00949 µM, first compound 0.316 µM
[12] = second compound 0.00949 µM, first compound 1 µM
[13] = second compound 0.03 µM, first compound 0.0316 µM
[14] = second compound 0.03 µM, first compound 0.1 µM
[15] = second compound 0.03 µM, first compound 0.316 µM
[16] = second compound 0.03 µM, first compound 1 µM
[17] = second compound 0.0949 µM, first compound 0.0316 µM
[18] = second compound 0.0949 µM, first compound 0.1 µM
[19] = second compound 0.0949 µM, first compound 0.316 µM
[20] = second compound 0.0949 µM, first compound 1 µM
[21] = second compound 0.3 µM, first compound 0.0316 µM
[22] = second compound 0.3 µM, first compound 0.1 µM
[23] = second compound 0.3 µM, first compound 0.316 µM
[24] = second compound 0.3 µM, first compound 1 µM

IC50 (second compound 0.000949 µM): > 1000 nM
IC50 (second compound 0.003 µM): > 1000 nM
IC50 (second compound 0.00949 µM): > 1000 nM
IC50 (second compound 0.03 µM): 120 nM
IC50 (second compound 0.0949 µM): < 3.16 nM
IC50 (second compound 0.3 µM): < 3.16 nM
SMILES: C=CC(=O)Nc1cc(Nc2nccc(-c3cn(C)c4ccccc34)n2)c(OC)cc1N(C)CCN(C)C + CCn1c(-c2cc(N3CCN(C)CC3)cnc2C(C)OC)c2c3cc(ccc31)-c1csc(n1)CC(NC(=O)C1CC1C)C(=O)N1CCCC(N1)C(=O)OCC(C)(C)C2
viability, T/C (second compound 0.000949 µM, first compound 0.00316 µM): 97.3%
viability, T/C (second compound 0.000949 µM, first compound 0.01 µM): 95%
viability, T/C [1]: 103%
viability, T/C [2]: 94.9%
viability, T/C [3]: 105%
viability, T/C [4]: 103%
viability, T/C (second compound 0.003 µM, first compound 0.00316 µM): 87.2%
viability, T/C (second compound 0.003 µM, first compound 0.01 µM): 95.3%
viability, T/C [5]: 98.8%
viability, T/C [6]: 98.4%
viability, T/C [7]: 103%
viability, T/C [8]: 106%
viability, T/C (second compound 0.00949 µM, first compound 0.00316 µM): 108%
viability, T/C (second compound 0.00949 µM, first compound 0.01 µM): 112%
viability, T/C [9]: 112%
viability, T/C [10]: 114%
viability, T/C [11]: 111%
viability, T/C [12]: 112%
viability, T/C (second compound 0.03 µM, first compound 0.00316 µM): 54.3%
viability, T/C (second compound 0.03 µM, first compound 0.01 µM): 46.8%
viability, T/C [13]: 59.9%
viability, T/C [14]: 49.9%
viability, T/C [15]: 42.2%
viability, T/C [16]: 9.94%
viability, T/C (second compound 0.0949 µM, first compound 0.00316 µM): 7.68%
viability, T/C (second compound 0.0949 µM, first compound 0.01 µM): 6.73%
viability, T/C [17]: 7.23%
viability, T/C [18]: 6.05%
viability, T/C [19]: 5.18%
viability, T/C [20]: 1.96%
viability, T/C (second compound 0.3 µM, first compound 0.00316 µM): 4.84%
viability, T/C (second compound 0.3 µM, first compound 0.01 µM): 4.08%
viability, T/C [21]: 4.06%
viability, T/C [22]: 3.89%
viability, T/C [23]: 3.59%
viability, T/C [24]: 1.46%

IC50 (second compound 0.0316 µM): > 10000 nM
IC50 (second compound 0.1 µM): > 10000 nM
IC50 (second compound 0.316 µM): > 10000 nM
IC50 (second compound 1 µM): > 10000 nM
IC50 (second compound 3.16 µM): > 10000 nM
IC50 (second compound 10 µM): > 10000 nM
SMILES: NC1c2ccccc2OC12CCN(c1cnc3c(N4CCCc5ncccc54)n[nH]c3n1)CC2 (stereo unspecified) + C#Cc1c(F)ccc2cc(O)cc(-c3ncc4c(N5CC6CCC(C5)N6)nc(OCC56CCCN5CC(F)C6)nc4c3F)c12
viability, T/C (second compound 0.0316 µM, first compound 0.0316 µM): 100%
viability, T/C (second compound 0.0316 µM, first compound 0.1 µM): 91.8%
viability, T/C (second compound 0.0316 µM, first compound 0.316 µM): 104%
viability, T/C (second compound 0.0316 µM, first compound 1 µM): 100%
viability, T/C (second compound 0.0316 µM, first compound 3.16 µM): 104%
viability, T/C (second compound 0.0316 µM, first compound 10 µM): 70.2%
viability, T/C (second compound 0.1 µM, first compound 0.0316 µM): 95.9%
viability, T/C (second compound 0.1 µM, first compound 0.1 µM): 98%
viability, T/C (second compound 0.1 µM, first compound 0.316 µM): 101%
viability, T/C (second compound 0.1 µM, first compound 1 µM): 101%
viability, T/C (second compound 0.1 µM, first compound 3.16 µM): 105%
viability, T/C (second compound 0.1 µM, first compound 10 µM): 64.8%
viability, T/C (second compound 0.316 µM, first compound 0.0316 µM): 99.2%
viability, T/C (second compound 0.316 µM, first compound 0.1 µM): 97.4%
viability, T/C (second compound 0.316 µM, first compound 0.316 µM): 105%
viability, T/C (second compound 0.316 µM, first compound 1 µM): 99.8%
viability, T/C (second compound 0.316 µM, first compound 3.16 µM): 104%
viability, T/C (second compound 0.316 µM, first compound 10 µM): 67.8%
viability, T/C (second compound 1 µM, first compound 0.0316 µM): 98.3%
viability, T/C (second compound 1 µM, first compound 0.1 µM): 96.5%
viability, T/C (second compound 1 µM, first compound 0.316 µM): 106%
viability, T/C (second compound 1 µM, first compound 1 µM): 106%
viability, T/C (second compound 1 µM, first compound 3.16 µM): 99.7%
viability, T/C (second compound 1 µM, first compound 10 µM): 67.2%
viability, T/C (second compound 3.16 µM, first compound 0.0316 µM): 96.3%
viability, T/C (second compound 3.16 µM, first compound 0.1 µM): 98.7%
viability, T/C (second compound 3.16 µM, first compound 0.316 µM): 99%
viability, T/C (second compound 3.16 µM, first compound 1 µM): 101%
viability, T/C (second compound 3.16 µM, first compound 3.16 µM): 103%
viability, T/C (second compound 3.16 µM, first compound 10 µM): 59.5%
viability, T/C (second compound 10 µM, first compound 0.0316 µM): 95.9%
viability, T/C (second compound 10 µM, first compound 0.1 µM): 94.7%
viability, T/C (second compound 10 µM, first compound 0.316 µM): 98.6%
viability, T/C (second compound 10 µM, first compound 1 µM): 97.3%
viability, T/C (second compound 10 µM, first compound 3.16 µM): 82.1%
viability, T/C (second compound 10 µM, first compound 10 µM): 53.6%

IC50 (second compound 0.000949 µM): 1430 nM
IC50 (second compound 0.003 µM): 1620 nM
IC50 (second compound 0.00949 µM): 738 nM
IC50 (second compound 0.03 µM): < 31.6 nM
IC50 (second compound 0.0949 µM): < 31.6 nM
IC50 (second compound 0.3 µM): < 31.6 nM
SMILES: CCC(CC)c1cc(NC2CCC(N)C2)n2nccc2n1 (stereo unspecified) + CCn1c(-c2cc(N3CCN(C)CC3)cnc2C(C)OC)c2c3cc(ccc31)-c1csc(n1)CC(NC(=O)C1CC1C)C(=O)N1CCCC(N1)C(=O)OCC(C)(C)C2
viability, T/C [1]: 104%
viability, T/C [2]: 94.4%
viability, T/C [3]: 101%
viability, T/C [4]: 72.3%
viability, T/C (second compound 0.000949 µM, first compound 3.16 µM): 0.36%
viability, T/C (second compound 0.000949 µM, first compound 10 µM): 0.25%
viability, T/C [5]: 96.1%
viability, T/C [6]: 93.5%
viability, T/C [7]: 102%
viability, T/C [8]: 85.8%
viability, T/C (second compound 0.003 µM, first compound 3.16 µM): 0.43%
viability, T/C (second compound 0.003 µM, first compound 10 µM): 0.14%
viability, T/C [9]: 114%
viability, T/C [10]: 117%
viability, T/C [11]: 115%
viability, T/C [12]: 26.6%
viability, T/C (second compound 0.00949 µM, first compound 3.16 µM): 0.16%
viability, T/C (second compound 0.00949 µM, first compound 10 µM): 0.13%
viability, T/C [13]: 36.7%
viability, T/C [14]: 34.9%
viability, T/C [15]: 49.8%
viability, T/C [16]: 2.49%
viability, T/C (second compound 0.03 µM, first compound 3.16 µM): 0.12%
viability, T/C (second compound 0.03 µM, first compound 10 µM): 0.1%
viability, T/C [17]: 6.21%
viability, T/C [18]: 6.5%
viability, T/C [19]: 6.35%
viability, T/C [20]: 0.97%
viability, T/C (second compound 0.0949 µM, first compound 3.16 µM): 0.11%
viability, T/C (second compound 0.0949 µM, first compound 10 µM): 0.09%
viability, T/C [21]: 4.59%
viability, T/C [22]: 3.76%
viability, T/C [23]: 2.94%
viability, T/C [24]: 1.37%
viability, T/C (second compound 0.3 µM, first compound 3.16 µM): 0.14%
viability, T/C (second compound 0.3 µM, first compound 10 µM): 0.12%
